In ChEMBL document CHEMBL1909046, “DrugMatrix in vitro pharmacology data”:

Experiments:
[1] = DRUGMATRIX: Calcium Channel Type L, Phenylalkylamine radioligand binding (ligand: [3H] (-)-Desmethoxyverapamil (D-888)); type: cell membranes, Rattus norvegicus, Wistar, Brain, Membrane; details: Not Active = under 50% inhibition at 10 µM
[2] = molecular target: D(1A) dopamine receptor (Homo sapiens, UniProt P21728); assay: DRUGMATRIX: Dopamine D1 radioligand binding (ligand: [3H] SCH-23390); type: cell membranes, CHO, Membrane; details: cho; Not Active = under 50% inhibition at 10 µM
[3] = DRUGMATRIX: Leukotriene, BLT (LTB4) radioligand binding (ligand: [3H]LTB4); type: cell membranes, Membrane; details: u-937; Not Active = under 50% inhibition at 10 µM
[4] = molecular target: Melanocortin receptor 4 (Homo sapiens, UniProt P32245); type: cell membranes, HEK293, Membrane; details: hek293; note: in other assays of this panel Not Active means under 50% inhibition at 10 µM
[5] = molecular target: T1, Muscarinic acetylcholine receptor M4 (Homo sapiens, UniProt P08173); type: cell membranes, CHO-K1, Membrane; details: cho-k1; note: in other assays of this panel Not Active means under 50% inhibition at 10 µM
T1 sequence (P08173 whole entry): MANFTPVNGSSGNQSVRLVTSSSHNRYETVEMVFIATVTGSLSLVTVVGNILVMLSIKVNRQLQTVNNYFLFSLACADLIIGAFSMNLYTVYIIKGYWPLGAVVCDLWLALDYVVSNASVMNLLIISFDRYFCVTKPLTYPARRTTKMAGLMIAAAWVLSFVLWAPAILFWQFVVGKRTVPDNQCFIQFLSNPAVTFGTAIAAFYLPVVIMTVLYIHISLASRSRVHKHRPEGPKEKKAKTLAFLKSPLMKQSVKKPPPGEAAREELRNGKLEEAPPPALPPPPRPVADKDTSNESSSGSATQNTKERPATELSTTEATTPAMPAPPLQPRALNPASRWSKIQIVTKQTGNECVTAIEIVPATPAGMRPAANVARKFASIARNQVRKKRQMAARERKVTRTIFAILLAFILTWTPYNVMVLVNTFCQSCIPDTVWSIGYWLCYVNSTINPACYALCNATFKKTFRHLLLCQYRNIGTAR

[6] = molecular target: T2, Cytochrome P450 2A6 (Homo sapiens, UniProt P11509); details: bti-tn-5b1-4; note: in other assays of this panel Not Active means under 50% inhibition at 10 µM
T2 sequence (P11509 whole entry): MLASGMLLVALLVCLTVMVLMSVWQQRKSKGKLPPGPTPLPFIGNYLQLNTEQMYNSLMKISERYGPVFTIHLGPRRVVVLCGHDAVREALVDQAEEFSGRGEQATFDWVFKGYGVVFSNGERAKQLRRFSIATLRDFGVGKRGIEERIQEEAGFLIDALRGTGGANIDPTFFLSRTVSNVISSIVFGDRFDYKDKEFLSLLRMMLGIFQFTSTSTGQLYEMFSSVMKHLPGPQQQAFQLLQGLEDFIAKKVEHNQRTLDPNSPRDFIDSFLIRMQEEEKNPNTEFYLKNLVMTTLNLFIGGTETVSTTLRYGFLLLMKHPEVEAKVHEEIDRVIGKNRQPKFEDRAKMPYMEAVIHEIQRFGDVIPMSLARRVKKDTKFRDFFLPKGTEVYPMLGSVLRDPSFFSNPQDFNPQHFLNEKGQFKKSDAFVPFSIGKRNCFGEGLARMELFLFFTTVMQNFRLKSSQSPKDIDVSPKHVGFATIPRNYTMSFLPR

Sequence of D(1A) dopamine receptor (P21728 whole entry): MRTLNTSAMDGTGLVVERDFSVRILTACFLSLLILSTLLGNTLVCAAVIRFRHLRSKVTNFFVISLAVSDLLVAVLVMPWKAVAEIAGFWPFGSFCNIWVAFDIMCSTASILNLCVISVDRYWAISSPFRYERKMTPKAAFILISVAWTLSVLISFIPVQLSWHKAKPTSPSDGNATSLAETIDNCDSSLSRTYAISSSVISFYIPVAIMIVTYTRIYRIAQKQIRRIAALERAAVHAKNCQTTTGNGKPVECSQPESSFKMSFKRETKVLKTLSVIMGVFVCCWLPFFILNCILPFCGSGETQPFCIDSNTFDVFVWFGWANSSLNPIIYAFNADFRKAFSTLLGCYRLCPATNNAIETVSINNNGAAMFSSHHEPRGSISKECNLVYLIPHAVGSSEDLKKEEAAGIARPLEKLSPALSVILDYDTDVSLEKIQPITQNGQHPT
Sequence of Melanocortin receptor 4 (P32245 whole entry): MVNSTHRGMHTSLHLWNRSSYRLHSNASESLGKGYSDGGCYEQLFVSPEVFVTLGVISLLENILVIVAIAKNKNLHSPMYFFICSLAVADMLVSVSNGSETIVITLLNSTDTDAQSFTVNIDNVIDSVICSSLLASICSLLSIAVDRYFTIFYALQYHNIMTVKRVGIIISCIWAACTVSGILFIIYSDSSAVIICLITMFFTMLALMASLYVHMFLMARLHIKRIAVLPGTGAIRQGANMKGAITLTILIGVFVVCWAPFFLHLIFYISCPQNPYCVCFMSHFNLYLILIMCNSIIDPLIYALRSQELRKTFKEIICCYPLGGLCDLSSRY

Nc1ccn([C@@H]2O[C@H](CO)[C@@H](O)[C@@H]2O)c(=O)n1 [CYTARABINE]
Not Active: IC50 [1] | Ki [1] | IC50 [2] | IC50 [3] | Ki [3] | IC50 [4] | IC50 [5] | IC50 [6] | Ki [6]

GADOPENTETATE DIMEGLUMINE
Not Active: IC50 [1] | Ki [1] | IC50 [2] | Ki [2] | IC50 [3] | Ki [3] | IC50 [4] | Ki [4] | IC50 [5] | Ki [5] | IC50 [6] | Ki [6]

C=CCc1ccc(O)c(OC)c1 [EUGENOL]
Not Active: IC50 [1] | Ki [1] | IC50 [2] | IC50 [3] | Ki [3] | IC50 [4] | IC50 [5] | IC50 [6] | Ki [6]

CCn1cc(C(=O)O)c(=O)c2cnc(N3CCCC3)nc21 [PIROMIDIC ACID]
Not Active: IC50 [1] | Ki [1] | IC50 [2] | IC50 [3] | Ki [3] | IC50 [4] | IC50 [5] | IC50 [6] | Ki [6]

COC(=O)Nc1nc2ccc(C(=O)c3cccs3)cc2[nH]1 [NOCODAZOLE]
Not Active: IC50 [1] | Ki [1] | IC50 [2] | IC50 [3] | Ki [3] | IC50 [4] | IC50 [5] | IC50 [6] | Ki [6]

AURANOFIN
Not Active: IC50 [1] | Ki [1] | IC50 [2] | Ki [2] | IC50 [3] | Ki [3] | IC50 [4] | Ki [4] | IC50 [5] | Ki [5] | IC50 [6] | Ki [6]

Cc1nnc2n1-c1ccc(Cl)cc1C(c1ccccc1)=NC2 [ALPRAZOLAM]
Not Active: IC50 [1] | Ki [1] | IC50 [2] | IC50 [3] | Ki [3] | IC50 [4] | IC50 [5] | IC50 [6] | Ki [6]

CC(=O)[C@H]1[C@H](C#N)C[C@H]2[C@@H]3CC=C4C[C@@H](O)CC[C@]4(C)[C@H]3CC[C@@]21C [PREGNENOLONE CARBONITRILE]
Not Active: IC50 [1] | Ki [1] | IC50 [2] | IC50 [3] | Ki [3] | IC50 [4] | IC50 [5] | IC50 [6] | Ki [6]

C[C@@H]1CC[C@@]2(OC1)O[C@H]1[C@@H](O)[C@H]3[C@@H]4CC[C@H]5C[C@@H](O[C@@H]6O[C@H](CO)[C@H](O[C@@H]7O[C@H](CO)C(O)[C@H](O[C@@H]8OC[C@@H](O)[C@H](O)[C@H]8O)[C@H]7O[C@@H]7O[C@H](CO)[C@H](O)[C@H](O[C@@H]8O[C@H](CO)[C@@H](O)[C@H](O)[C@H]8O)[C@H]7O)[C@H](O)[C@H]6O)[C@H](O)C[C@]5(C)[C@H]4CC[C@]3(C)[C@H]1[C@@H]2C (some centres not stated) [DIGITONIN]
Not Active: IC50 [1] | Ki [1] | IC50 [2] | IC50 [3] | Ki [3] | IC50 [4] | IC50 [5] | IC50 [6] | Ki [6]
